# Reference: patent US7776865B2, “Substituted pyrazolo[1,5-a]pyrimidines as protein kinase inhibitors” (Schering Corporation, priority 2005, dated 2010)
# Read-outs that look alike come from different tables or passages of the source.
# What was measured:
# recombinant His-CHK1 = molecular target: T1, recombinant His-CHK1 (Homo sapiens, UniProt O14757); test: CHK1 SPA Assay; format: biochemical; settings: CDC25C biotinylated peptide substrate, 1 uM ATP
# T1 construct: His-CHK1, In House Lot P976, MW ˜30 KDa, stored at −80° C; fused on or other part: His tag
# T1 sequence (O14757 1-265 limits assumed): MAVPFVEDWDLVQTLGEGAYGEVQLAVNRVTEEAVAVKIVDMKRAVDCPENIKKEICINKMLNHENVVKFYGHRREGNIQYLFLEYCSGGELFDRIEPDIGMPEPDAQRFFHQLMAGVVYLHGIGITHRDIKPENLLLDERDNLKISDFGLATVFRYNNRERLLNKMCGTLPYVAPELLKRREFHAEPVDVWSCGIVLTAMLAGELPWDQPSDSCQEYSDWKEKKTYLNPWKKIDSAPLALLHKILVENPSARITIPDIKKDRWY
# CDK2/cyclin A = molecular target: T2, CDK2/cyclin A (Homo sapiens, UniProt P24941); test: CDK2 Assay (in vitro kinase assay, cyclin A-dependent); format: biochemical
# T2 construct: made in house; host or cells: SF9 cells (recombinant baculovirus, pFASTBAC)
# [1] = SPA, biotinylated Histone H1 peptide substrate, read-out: CDK2/cyclin A IC50
# [2] = read-out: CDK2/cyclin A IC50, SPA, biotinylated Histone H1 peptide substrate
Compound,IC50 (recombinant His-CHK1; CHK1 IC50 [nM]),IC50 (recombinant His-CHK1; read-out: CHK1 IC50),other results
Cn1cc(-c2cnn3c(N)c(-c4ccncc4)c(C4CCCNC4)nc23)cn1 (centres unmarked),229 nM,,IC50 (CDK2/cyclin A; [1]): 11300 nM
Cn1cc(-c2cnn3c(N)c(-c4ccccc4)c(C4CCCNC4)nc23)cn1 (centres unmarked),563 nM,,
Cn1cc(-c2cnn3c(N)c(-c4ccsc4)c(C4CCCNC4)nc23)cn1 (centres unmarked),160 nM,,IC50 (CDK2/cyclin A; [1]): 2150 nM
Cn1cc(-c2cnn3c(N)c(-c4ccoc4)c(C4CCCNC4)nc23)cn1 (centres unmarked),340 nM,,
Cn1cc(-c2cnn3c(N)c(-c4cccnc4)c(C4CCCNC4)nc23)cn1 (centres unmarked),507 nM,,IC50 (CDK2/cyclin A; [1]): 1480 nM
Cn1cc(-c2cnn3c(N)c(C4CC4)c(C4CCCNC4)nc23)cn1 (centres unmarked),17 nM,,IC50 (CDK2/cyclin A; [1]): 167 nM
C=C(C)c1c(C2CCCNC2)nc2c(-c3cnn(C)c3)cnn2c1N (centres unmarked),,67 nM,IC50 (CDK2/cyclin A): 201 nM
Cn1cc(-c2cnn3c(N)c(-c4cnn(CCO)c4)c(C4CCCNC4)nc23)cn1 (centres unmarked),,114 nM,IC50 (CDK2/cyclin A): 11700 nM
Cn1cc(-c2c(C3CCCNC3)nc3c(-c4cnn(C)c4)cnn3c2N)cn1 (centres unmarked),102 nM,,IC50 (CDK2/cyclin A; [1]): 224000 nM
COC/C=C/c1c(C2CCCNC2)nc2c(-c3cnn(C)c3)cnn2c1N (centres unmarked),52 nM,,
Cn1cc(-c2cnn3c(N)c(-c4cccs4)c(C4CCCNC4)nc23)cn1 (centres unmarked),86 nM,,
CCc1c(C2CCCNC2)nc2c(-c3cnn(C)c3)cnn2c1N (centres unmarked),31 nM,,IC50 (CDK2/cyclin A; [1]): 334 nM
Cn1cc(-c2cnn3c(N)c(C#N)c(C4CCCNC4)nc23)cn1 (centres unmarked),102 nM,,IC50 (CDK2/cyclin A; [1]): 1720 nM
CC(=O)c1c(C2CCCNC2)nc2c(-c3cnn(C)c3)cnn2c1N (centres unmarked),,8 nM,IC50 (CDK2/cyclin A): 33 nM
CC(=NO)c1c(C2CCCNC2)nc2c(-c3cnn(C)c3)cnn2c1N (centres unmarked),,59 nM,
CCC(=O)c1c(C2CCCNC2)nc2c(-c3cnn(C)c3)cnn2c1N (centres unmarked),,12 nM,IC50 (CDK2/cyclin A): 38 nM
Cn1cc(-c2cnn3c(N)c(C(=O)Cc4ccccc4)c(C4CCCNC4)nc23)cn1 (centres unmarked),,47 nM,IC50 (CDK2/cyclin A): 103 nM
CC#Cc1c(C2CCCNC2)nc2c(-c3cnn(C)c3)cnn2c1N (centres unmarked),44 nM,,IC50 (CDK2/cyclin A; [1]): 1290 nM
Cc1nc2c(Br)cnn2c(N)c1CC(N)=O,,4750 nM,IC50 (CDK2/cyclin A; [2]): 1190 nM
CNC(=O)Cc1c(C)nc2c(Br)cnn2c1N,,> 50000 nM,IC50 (CDK2/cyclin A; [2]): 41300 nM
Cc1nc2c(Br)cnn2c(N)c1CCO,,29100 nM,IC50 (CDK2/cyclin A; [2]): 69 nM
Cc1nc2c(Br)cnn2c(N)c1CCC(N)=O,,> 50000 nM,IC50 (CDK2/cyclin A; [2]): 882 nM
Nc1c(-c2ccccc2)c(N2CC[C@H](N)C2)nc2c(Br)cnn12,,22600 nM,melting point: 167 to 170 °C
CCc1c(N2CC[C@H](N)C2)nc2c(Br)cnn2c1N,,845 nM,IC50 (CDK2/cyclin A; [2]): 852 nM
Cc1c(N2CC[C@H](N)C2)nc2c(Br)cnn2c1N,,1580 nM,IC50 (CDK2/cyclin A; [2]): 754 nM
"CC(O)c1c(C2CCCNC2)nc2c(-c3cnn(C)c3)cnn2c1N (single isomer, unassigned) [drawing 212]",,148 nM,
"CC(O)c1c(C2CCCNC2)nc2c(-c3cnn(C)c3)cnn2c1N (single isomer, unassigned) [drawing 213]",,18 nM,
